# From patent US10053454B2 (Bristol-Myers Squibb Company, priority 2013, dated 2018)
# Molecular target: BRD4 (Homo sapiens, UniProt O60885)
# Assay: Time Resolved Fluorescence Resonance Energy Transfer (TR-FRET) binding assay
# Details: one of the FRET assays described (BRD4 construct not given)
row,Structure (SMILES),IC50
1,"Cc1noc(C)c1-c1cc(C(N)=O)c2c(c1)c1ccc(C(=O)N3CCC(C#N)CC3)cc1n2S(C)(=O)=O [Example 6, 7-((4-cyano-1-piperidinyl)carbonyl)-3-(3,5-dimethyl-4-isoxazolyl)-9-(methylsulfonyl)-9H-carbazole-1-carboxamide]",< 50 nM
2,"Cc1noc(C)c1-c1cc(C(N)=O)c2c(c1)c1ccc(CO)cc1n2CC1CC1 [Example 46, 9-(cyclopropylmethyl)-3-(3,5-dimethyl-4-isoxazolyl)-7-(hydroxymethyl)-9H-carbazole-1-carboxamide]",< 500 nM
3,"Cc1noc(C)c1-c1cc(C(N)=O)c2c(c1)c1cc(Br)c(Br)cc1n2CC1CC1 [Example 35, 6,7-dibromo-9-(cyclopropylmethyl)-3-(3,5-dimethyl-4-isoxazolyl)-9H-carbazole-1-carboxamide]",< 500 nM
4,"Cc1noc(C)c1-c1cc(C(N)=O)c2c(c1)c1ccc(N(C)C)cc1n2CC1CC1 [Example 38, 9-(cyclopropylmethyl)-7-(dimethylamino)-3-(3,5-dimethyl-4-isoxazolyl)-9H-carbazole-1-carboxamide]",< 50 nM
5,"Cc1noc(C)c1-c1cc(C(N)=O)c2c(c1)c1ccc(C(=O)N3CNC(=O)C3)cc1n2S(C)(=O)=O [Example 19, 3-(3,5-dimethyl-4-isoxazolyl)-9-(methylsulfonyl)-7-((4-oxo-1-imidazolidinyl)carbonyl)-9H-carbazole-1-carboxamide]",< 500 nM
6,"Cc1noc(C)c1-c1cc(C(N)=O)c2c(c1)c1ccc(C(=O)N3C[C@@H](C)O[C@@H](C)C3)cc1n2S(=O)(=O)C1CC1 [Example 88, 9-(cyclopropylsulfonyl)-3-(3,5-dimethyl-4-isoxazolyl)-7-((cis-2,6-dimethyl-4-morpholinyl)carbonyl)-9H-carbazole-1-carboxamide]",< 50 nM
7,Cc1csc(-c2cc(-c3c(C)noc3C)cc3c2[nH]c2cc(C(=O)N4CCOCC4)ccc23)n1 [Example 65],< 5000 nM
8,"Cc1noc(C)c1-c1cc(C(N)=O)c2c(c1)c1ccc(C(C)(C)N3CCOCC3)cc1n2CC1CC1 [Example 52, 9-(cyclopropylmethyl)-3-(3,5-dimethyl-4-isoxazolyl)-7-(1-methyl-1-(4-morpholinyl)ethyl)-9H-carbazole-1-carboxamide]",< 50 nM
9,"Cc1cnc(-c2cc(-c3c(C)noc3C)cc3c2[nH]c2cc(C(=O)N4CCOCC4)ccc23)o1 [Example 62, 3-(3,5-dimethyl-4-isoxazolyl)-1-(5-methyl-1,3-oxazol-2-yl)-7-(4-morpholinylcarbonyl)-9H-carbazole]",< 5000 nM
10,"Cc1noc(C)c1-c1cc(C(N)=S)c2c(c1)c1ccc(C(=O)N3CCOCC3)cc1n2CC1CC1 [Example 68, 9-(cyclopropylmethyl)-3-(3,5-dimethyl-4-isoxazolyl)-7-(4-morpholinylcarbonyl)-9H-carbazole-1-carbothioamide]",< 5000 nM
11,"Cc1noc(C)c1-c1cc(C(N)=O)c2c(c1)c1ccc(N3CCCOC3=O)cc1n2CC1CC1 [Example 43, 9-(cyclopropylmethyl)-3-(3,5-dimethyl-4-isoxazolyl)-7-(2-oxo-1,3-oxazinan-3-yl)-9H-carbazole-1-carboxamide]",< 50 nM
12,"Cc1oncc1-c1cc(C(N)=O)c2c(c1)c1ccc(C(=O)N3C[C@@H](C)O[C@@H](C)C3)cc1n2CC1CC1 [Example 57, 9-(cyclopropylmethyl)-7-((cis-2,6-dimethyl-4-morpholinyl)carbonyl)-3-(5-methyl-4-isoxazolyl)-9H-carbazole-1-carboxamide]",< 500 nM
13,"Cc1noc(C)c1-c1cc(C(N)=O)c2c(c1)c1ccc(C=O)cc1n2CC1CC1 [Example 47, 9-(cyclopropylmethyl)-3-(3,5-dimethyl-4-isoxazolyl)-7-formyl-9H-carbazole-1-carboxamide]",< 500 nM
